Non-standard residues stand in square brackets, D forms with d. Residues, ends and D or L forms follow the SMILES beside them. pY = N[C@@H](Cc1ccc(OP(=O)(O)O)cc1)C(=O)O
Legend:
[1] = target: T1, c-Src SH2 domain (Homo sapiens, UniProt P12931); assay: competitive fluorescence polarization, c-Src SH2 domain; assay type: binding; settings: Table S3, unpaired validation; competition fluorescence polarization; probe FITC-Ahx-GDG-pY-EEISPLLL-NH2 30 nM; [SH2] 123-126 nM; mean
T1 construct: the SH2 domain from c‐Src kinase; His6-SUMO (N, cleaved yes); host or cells: Escherichia coli C43(DE3) with BirA helper plasmid
From the text: Measured binding constants (K D) from competition mode fluorescence polarization experiments were obtained using the purified SH2 domains used for the selection and chosen sets of peptides with a phosphorylated tyrosine exactly as described previously (Li et al., [2023]). […] Before performing the competition mode fluorescence polarization measurement, the K D of the probes for the respective SH2 domains was first measured in a direct mode of fluorescence polarization. […] Using the validation data for the Fyn SH2 domain, the range of predicted relative binding affinities that corresponds to the range between 1 nM and 100 μM, which is the dynamic range of reliable measurement of absolute binding affinities using our competitive fluorescence polarization setup, was defined and used to further filter the set of candidate phosphopeptides. A subset that evenly covers the chosen range of predicted relative affinities was finally picked for the validation measurements of the Lyn SH2 domain.

[2] = target: Grb2 SH2 domain (Homo sapiens, UniProt P62993); assay: biochemical
From the text: Measured binding constants (K D) from competition mode fluorescence polarization experiments were obtained using the purified SH2 domains used for the selection and chosen sets of peptides with a phosphorylated tyrosine exactly as described previously (Li et al., [2023]). […] (c‐Src SH2 consensus) was used as the probe, and for the Grb2 SH2 domain, the fluorescently labeled peptide FITC‐Ahx‐FDDPS(pY)VNVQN (Ahx = 6‐aminohexanoic acid) from the Y177 phospho‐tyrosine site of BCR. Before performing the competition mode fluorescence polarization measurement, the K D of the probes for the respective SH2 domains was first measured in a direct mode of fluorescence polarization. […] For the set of peptides where single point mutations were compared, phosphopeptides reported in the PhosphoSitePlus database (Hornbeck et al., [2015]) and previously shown to bind to the c‐Src SH2 domain (Li et al., [2023]) were chosen alongside their respective single point mutants. To choose phosphopeptides for validation of the Lyn SH2 domain, we started from all verified phosphopeptides found in PhosphoSitePlus, filtered based on their co‐expression with the Lyn kinase using the STRING database. Using the validation data for the Fyn SH2 domain, the range of predicted relative binding affinities that corresponds to the range between 1 nM and 100 μM, which is the dynamic range of reliable measurement of absolute binding affinities using our competitive fluorescence polarization setup, was defined and used to further filter the set of candidate phosphopeptides. A subset that evenly covers the chosen range of predicted relative affinities was finally picked for the validation measurements of the Lyn SH2 domain. For the c‐Src, Yes, and Blk SH2 domains, a combination of the previously chosen peptides was used, after verifying that their predicted relative affinities for the given SH2 domain fell within the same measurable range. All peptides containing phosphorylated tyrosine, both fluorescently labeled and non‐labeled, were produced by SynPeptide (China).

Sequence of Grb2 SH2 domain (P62993 60-152 limits assumed): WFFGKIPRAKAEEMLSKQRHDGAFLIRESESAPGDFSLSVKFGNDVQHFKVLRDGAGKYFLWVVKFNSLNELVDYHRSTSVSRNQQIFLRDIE
T1 sequence (P12931 151-248 limits assumed): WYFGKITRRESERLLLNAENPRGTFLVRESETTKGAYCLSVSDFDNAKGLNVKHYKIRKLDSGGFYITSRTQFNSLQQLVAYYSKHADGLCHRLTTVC

CC(=O)N[C@@H](CCC(N)=O)C(=O)N[C@@H](CCCCN)C(=O)N[C@@H](CCC(=O)O)C(=O)N[C@@H](C)C(=O)N[C@@H](Cc1c[nH]cn1)C(=O)N[C@@H](Cc1c[nH]cn1)C(=O)N[C@@H](Cc1ccc(OP(=O)(O)O)cc1)C(=O)N[C@H](C(=O)N[C@@H](CC(N)=O)C(=O)N[C@@H](Cc1c[nH]c2ccccc12)C(=O)N[C@@H](CCCNC(=N)N)C(=O)N[C@H](C(=O)NCC(N)=O)[C@@H](C)O)C(C)C [Syn-G2-1] (Ac-QKEAHH[pY]VNWRTG-NH2)
Kd [1]: 9.66 µM
Kd [2]: 0.0318 µM

CC(=O)N[C@@H](CCC(N)=O)C(=O)N[C@@H](Cc1c[nH]cn1)C(=O)N[C@@H](CCCNC(=N)N)C(=O)N[C@@H](CC(C)C)C(=O)N[C@@H](CC(N)=O)C(=O)N[C@@H](CC(N)=O)C(=O)N[C@@H](Cc1ccc(OP(=O)(O)O)cc1)C(=O)N[C@@H](CCC(=O)O)C(=O)N[C@@H](CC(N)=O)C(=O)N[C@@H](CC(N)=O)C(=O)N[C@@H](CCCNC(=N)N)C(=O)N[C@@H](CC(C)C)C(=O)NCC(N)=O [Syn-G2-6] (Ac-QHRLNN[pY]ENNRLG-NH2)
Kd [2]: 2.25 µM

CC[C@H](C)[C@H](NC(=O)[C@H](CCC(N)=O)NC(C)=O)C(=O)N[C@@H](CCC(=O)O)C(=O)N[C@H](C(=O)NCC(=O)N[C@H](C(=O)N[C@@H](Cc1ccc(OP(=O)(O)O)cc1)C(=O)N[C@@H](CCC(N)=O)C(=O)N[C@@H](CC(N)=O)C(=O)N1CCC[C@H]1C(=O)N[C@@H](Cc1c[nH]cn1)C(=O)N[C@@H](CC(N)=O)C(=O)NCC(N)=O)[C@@H](C)O)C(C)C [Syn-G2-7] (Ac-QIEVGT[pY]QNPHNG-NH2)
Kd [2]: 3.24 µM
